The text below walks through data of patent US20240116946A1 (Gilead Sciences, Inc., priority 2022, published 2024).

In assay [1] the target is recombinant SARS-CoV-2 Main protease (Mpro) (Severe acute respiratory syndrome coronavirus 2 (2019-nCoV) (SARS-CoV-2), UniProt P0DTD1). The assay is described as follows: Cov Mpro Biochemical IC50 Assay. As to conditions: fluorogenic peptide substrate.
The next assay has as its system SARS-CoV-2-NLuc. The assay is described as follows: microbe, parasite or virus in culture. It is filed as cell-based, SARS Coronavirus 2.
[2] abbreviates: recombinant SARS-CoV-2 Mpro, read-out: MPro IC50.
Where [3] appears, read: Severe acute respiratory syndrome coronavirus, 48 h, read-out: MPro EC50.
[4] abbreviates: Severe acute respiratory syndrome coronavirus, 48 h; read-out: MPro EC50.

Like-named read-outs stand apart in the source and are kept apart here. Where only a bound is given, the exact number is not on record here.

On to `O=c1[nH]c2cc(-c3ccccc3Cl)sc2c(=O)n1-c1cncc2c1CCCC2` [Example 108], for which the 50% inhibitory concentration (IC50) in assay [1] (setting [2]) was determined as 9.23 nM. The half-maximal effective concentration (EC50) in the assay on SARS-CoV-2-NLuc (setting [3]) was determined as 71.4 nM.
In the same order, the values of `Cc1ccc2cncc(-n3c(=O)[nH]c4cc(-c5ccccc5Cl)ccc4c3=O)c2c1` [Example 109] are 265 nM and 423 nM.
`O=c1[nH]c2cc(-c3c(Cl)cccc3Cl)sc2c(=O)n1-c1cncc2ccccc12` [Example 110, 6-(2,6-dichlorophenyl)-3-(isoquinolin-4-yl)thieno[3,2-d]pyrimidine-2,4(1H,3H)-dione]: the half-maximal inhibitory concentration (IC50) in assay [1] (setting [2]) is 372 nM. For the same molecule, in the assay on SARS-CoV-2-NLuc (setting [4]), the EC50 was 275 nM.
As to `Cc1cc(-c2cccc(Cl)c2-c2cc3[nH]c(=O)n(-c4cncc5ccccc45)c(=O)c3s2)cnn1` [Example 111, 6-(2-chloro-6-(6-methylpyridazin-4-yl)phenyl)-3-(isoquinolin-4-yl)thieno[3,2-d]pyrimidine-2,4(1H,3H)-dione], the IC50 in assay [1] (setting [2]) came out at 6.88 nM. In the assay with SARS-CoV-2-NLuc (setting [4]), the EC50 was found to be 78.9 nM.
As for `O=c1[nH]c2cc(-c3c(Cl)cccc3-c3ccnnc3)sc2c(=O)n1-c1cncc2ccccc12` [Example 112], the 50% inhibitory concentration (IC50) in assay [1] (setting [2]) is 5.19 nM. For the same molecule, the EC50 in the assay with SARS-CoV-2-NLuc (setting [3]) was found to be 39.2 nM.
In the same order, the values of `Cc1cc(-c2cccc(Cl)c2-c2cc3[nH]c(=O)n(-c4cncc5ccccc45)c(=O)c3s2)cn2ncnc12` [Example 113] are 7.31 nM and less than 7.31 nM.
`Cc1c(-c2cccc(Cl)c2-c2cc3[nH]c(=O)n(-c4cncc5ccccc45)c(=O)c3s2)cn2ncnc2c1C` [Example 114]: the IC50 in assay [1] (setting [2]) turned out to be 10.9 nM. Further, the EC50 in the assay with SARS-CoV-2-NLuc (setting [3]) was 44.4 nM.
Take `O=c1[nH]c2cc(-c3ccccc3Cl)sc2c(=O)n1-c1cnccc1N1CCNCC1` [Example 115, 6-(2-chlorophenyl)-3-(4-(piperazin-1-yl)pyridin-3-yl)thieno[3,2-d]pyrimidine-2,4(1H,3H)-dione]: the IC50 in assay [1] (setting [2]) worked out at 522 nM. The EC50 in the assay on SARS-CoV-2-NLuc (setting [4]) worked out at 1530 nM.
In the same order, the values of `O=c1[nH]c2cc(-c3ccccc3Cl)ccc2c(=O)n1-c1cnccc1N1CCNCC1` [Example 116, 7-(2-chlorophenyl)-3-(4-(piperazin-1-yl)pyridin-3-yl)quinazoline-2,4(1H,3H)-dione] are 797 nM and 3200 nM.
In the same order, the values of `O=c1[nH]c2cc(-c3ccccc3Cl)sc2c(=O)n1-c1cnccc1N1CCN(C2COC2)CC1` [Example 117, 6-(2-chlorophenyl)-3-(4-(4-(oxetan-3-yl)piperazin-1-yl)pyridin-3-yl)thieno[3,2-d]pyrimidine-2,4(1H,3H)-dione] are 156 nM and 627 nM.
With `N#Cc1ccccc1-c1nc2[nH]c(=O)n(-c3cncc4ccccc34)c(=O)c2s1` [Example 118, 2-(6-(isoquinolin-4-yl)-5,7-dioxo-4,5,6,7-tetrahydrothiazolo[4,5-d]pyrimidin-2-yl)benzonitrile], the IC50 in assay [1] (setting [2]) is 290 nM. In addition, the concentration giving a half-maximal response (EC50) with SARS-CoV-2-NLuc (setting [4]) amounted to 11700 nM.
As to `Cc1c(C2CCOCC2)cncc1-n1c(=O)[nH]c2cc(-c3ccccc3Cl)sc2c1=O` [Example 119, 6-(2-chlorophenyl)-3-(4-methyl-5-(tetrahydro-2H-pyran-4-yl)pyridin-3-yl)thieno[3,2-d]pyrimidine-2,4(1H,3H)-dione], the concentration for half-maximal inhibition (IC50) in assay [1] (setting [2]) came to 386 nM. Also, the 50% effective concentration (EC50) in the assay on SARS-CoV-2-NLuc (setting [3]) is 2760 nM.
In the same order, the values of `O=c1c2sc(-c3ccccc3Cl)cc2n(CC2CCOCC2)c(=O)n1-c1cncc2ccccc12` [Example 120, 6-(2-chlorophenyl)-3-(isoquinolin-4-yl)-1-((tetrahydro-2H-pyran-4-yl)methyl)thieno[3,2-d]pyrimidine-2,4(1H,3H)-dione] are 96.8 nM and 275 nM.
In the same order, the values of `Cc1ccncc1-n1c(=O)[nH]c2cc(-c3ccccc3Cl)ccc2c1=O` [Example 121, 7-(2-chlorophenyl)-3-(4-methylpyridin-3-yl)quinazoline-2,4(1H,3H)-dione] are 708 nM and 1150 nM.
In the same order, the values of `O=c1[nH]c2cc(-c3ccccc3Cl)ccc2c(=O)n1-c1cccnc1` [Example 122] are 1010 nM and 3910 nM.
For `O=c1[nH]c2cc(-c3ccccc3Cl)ccc2c(=O)n1-c1cncnc1` [Example 123], the half-inhibitory concentration (IC50) in assay [1] (setting [2]) was greater than 100000 nM. The EC50 in the assay with SARS-CoV-2-NLuc (setting [3]) is 47000 nM.
In the same order, the values of `CCc1ccncc1-n1c(=O)[nH]c2cc(-c3ccccc3Cl)ccc2c1=O` [Example 124] are 948 nM and 2220 nM.
In the same order, the values of `O=c1[nH]c2cc(-c3ccccc3Cl)ccc2c(=O)n1-c1cnccc1C(F)(F)F` [Example 125] are 22500 nM and 17500 nM.
In the same order, the values of `COC(=O)[C@H]1C[C@@H]1c1cncc(-n2c(=O)[nH]c3cc(-c4ccccc4Cl)ccc3c2=O)c1C` [Example 126] are greater than 50000 nM and greater than 50000 nM.
Turning to `O=c1[nH]c2cc(-c3ccccc3Cl)ccc2c(=O)n1-c1cncc(C2CC2)c1` [Example 127], in assay [1] (MPro IC50, recombinant SARS-CoV-2 Mpro), the IC50 is 776 nM. Also, the EC50 in the assay with SARS-CoV-2-NLuc (setting [4]) was determined as 652 nM.
Turning to `O=c1[nH]c2cc(-c3ccccc3Cl)ccc2c(=O)n1-c1cnccc1N1CCOCC1` [Example 128], the IC50 in assay [1] (setting [2]) is 510 nM. Further, the EC50 in the assay on SARS-CoV-2-NLuc (setting [4]) is 1320 nM.
As to `O=c1[nH]c2cc(-c3ccccc3Cl)ccc2c(=O)n1-c1cnccc1C1CCOCC1` [Example 129], the IC50 in assay [1] (setting [2]) was determined as 1030 nM. The EC50 with SARS-CoV-2-NLuc (setting [3]) was determined as 1230 nM.
In the same order, the values of `O=c1[nH]c2cc(-c3ccccc3Cl)sc2c(=O)n1-c1cnccc1C1CC1` [Example 130, 6-(2-chlorophenyl)-3-(4-cyclopropylpyridin-3-yl)thieno[3,2-d]pyrimidine-2,4(1H,3H)-dione] are 73.1 nM and 147 nM.
In the same order, the values of `O=c1[nH]c2cc(-c3ccccc3Cl)sc2c(=O)n1-c1cnnc2ccccc12` [Example 131] are 97 nM and 633 nM.
In the same order, the values of `Cc1cncc(-n2c(=O)[nH]c3cc(-c4ccccc4Cl)sc3c2=O)c1C` [Example 132] are 9.12 nM and 27.4 nM.
For the molecule `O=c1[nH]c2cc(-c3ccccc3Cl)sc2c(=O)n1-c1cncc2cccnc12` [Example 133, 6-(2-chlorophenyl)-3-(1,6-naphthyridin-8-yl)thieno[3,2-d]pyrimidine-2,4(1H,3H)-dione], in assay [1] (setting [2]), the half-maximal inhibitory concentration (IC50) is 12.8 nM. The EC50 with SARS-CoV-2-NLuc (setting [3]) stood at 27.7 nM.
In the same order, the values of `O=c1[nH]c2cc(-c3ccccc3Cl)sc2c(=O)n1-c1cncc2ncccc12` [Example 134] are 63.3 nM and 150 nM.
As to `O=c1[nH]c2cc(-c3ccccc3Cl)sc2c(=O)n1-c1cncc2nccn12` [Example 135], in assay [1] (setting [2]), the half-maximal inhibitory concentration (IC50) amounted to 51.5 nM. The 50% effective concentration (EC50) in the assay on SARS-CoV-2-NLuc (setting [3]) worked out at 288 nM.
In the same order, the values of `COC(=O)[C@H]1C[C@@H]1c1cncc(-n2c(=O)[nH]c3cc(-c4ccccc4Cl)sc3c2=O)c1C` [Example 136] are greater than 50000 nM and 11100 nM.
As for `O=c1[nH]c2cc(-c3ccccc3Cl)sc2c(=O)n1-c1cncc(C2CC2)c1` [Example 137], the concentration for half-maximal inhibition (IC50) in assay [1] (setting [2]) stood at 15 nM. The concentration giving a half-maximal response (EC50) in the assay on SARS-CoV-2-NLuc (setting [3]) is 40.1 nM.
`O=c1[nH]c2cc(-c3ccccc3Cl)sc2c(=O)n1-c1cnccc1C1CCOCC1` [Example 138]: in assay [1] (setting [2]), the IC50 was 16.2 nM. In the assay with SARS-CoV-2-NLuc (setting [3]), the EC50 worked out at 144 nM.
In the same order, the values of `O=c1[nH]c2cc(-c3ccccc3Cl)sc2c(=O)n1-c1cnccc1N1CCOCC1` [Example 139] are 108 nM and 595 nM.
In the case of `Cc1c(Cl)cncc1-n1c(=O)[nH]c2cc(-c3ccccc3Cl)ccc2c1=O` [Example 140, 3-(5-chloro-4-methylpyridin-3-yl)-7-(2-chlorophenyl)quinazoline-2,4(1H,3H)-dione], the IC50 in assay [1] (setting [2]) was greater than 100000 nM. Also, the half-maximal effective concentration (EC50) in the assay on SARS-CoV-2-NLuc (setting [3]) was determined as 429 nM.
As to `COc1cncc(-n2c(=O)[nH]c3cc(-c4ccccc4Cl)ccc3c2=O)c1C` [Example 141], the half-maximal inhibitory concentration (IC50) in assay [1] (setting [2]) worked out at 6650 nM. Further, in the assay with SARS-CoV-2-NLuc (setting [3]), the EC50 was found to be 32200 nM.
In the same order, the values of `O=c1[nH]c2cc(-c3c(Cl)cccc3-c3ccn4ncnc4c3)ccc2c(=O)n1-c1cncc2ccccc12` [Example 142, 7-[2-chloro-6-([1,2,4]triazolo[1,5-a]pyridin-7-yl)phenyl]-3-(4-isoquinolyl)-1H-quinazoline-2,4-dione] are 8.62 nM and 31.5 nM.
As for `COc1cc(-c2cccc(Cl)c2-c2ccc3c(=O)n(-c4cncc5ccccc45)c(=O)[nH]c3c2)cn2ncnc12` [Example 143], the IC50 in assay [1] (setting [2]) was 10.8 nM. For the same molecule, in the assay on SARS-CoV-2-NLuc (setting [4]), the half-maximal effective concentration (EC50) is 79.2 nM.
Turning to `Cn1cc(-c2cccc(Cl)c2-c2ccc3c(=O)n(-c4cncc5ccccc45)c(=O)[nH]c3c2)cn1` [Example 144], in assay [1] (setting [2]), the IC50 was 95.4 nM. Besides, the EC50 with SARS-CoV-2-NLuc (setting [3]) was found to be 68.2 nM.
For the molecule `O=c1[nH]c2cc(-c3c(Cl)cccc3-c3cc(C(F)(F)F)c4ncnn4c3)ccc2c(=O)n1-c1cncc2ccccc12` [Example 145], in assay [1] (setting [2]), the half-maximal inhibitory concentration (IC50) worked out at 23.9 nM. Moreover, the EC50 in the assay on SARS-CoV-2-NLuc (setting [4]) was found to be 43 nM.
Consider `Cn1ccc(-c2cccc(Cl)c2-c2ccc3c(=O)n(-c4cncc5ccccc45)c(=O)[nH]c3c2)n1` [Example 146], for which, in assay [1] (setting [2]), the IC50 is 99.7 nM. For the same molecule, the EC50 in the assay with SARS-CoV-2-NLuc (setting [3]) was found to be 60.6 nM.
In the same order, the values of `O=c1[nH]c2cc(-c3c(Cl)cccc3-c3ccc4nccn4c3)ccc2c(=O)n1-c1cncc2ccccc12` [Example 147] are 11 nM and 17.1 nM.
For `Cc1nn(C)cc1-c1cccc(Cl)c1-c1ccc2c(=O)n(-c3cncc4ccccc34)c(=O)[nH]c2c1` [Example 148], the 50% inhibitory concentration (IC50) in assay [1] (setting [2]) came out at 10.4 nM. Also, the EC50 in the assay with SARS-CoV-2-NLuc (setting [3]) worked out at 14.1 nM.
Turning to `NC(=O)c1ccc(-c2cccc(Cl)c2-c2ccc3c(=O)n(-c4cncc5ccccc45)c(=O)[nH]c3c2)cc1` [Example 149, 4-[3-chloro-2-[3-(4-isoquinolyl)-2,4-dioxo-1H-quinazolin-7-yl]phenyl]benzamide], the half-inhibitory concentration (IC50) in assay [1] (setting [2]) is 19.2 nM. Moreover, the half-maximal effective concentration (EC50) in the assay on SARS-CoV-2-NLuc (setting [3]) is 40.2 nM.
